Results published in US10815274B2, “Immunogenic WT-1 peptides and methods of use thereof” (Memorial Sloan Kettering Cancer Center, priority 2012, dated 2020).
Where a SMILES comes first, the peptide text is derived from it.

Legend:
WT1- autologous APC = assay: Cr51 release assay, cytotoxic CTL response vs unmodified autologous APC; type: cell-based, human; conditions: 50:1 E:T
[1] = test system: WT1 peptide loaded autologous APC; assay: Cr51 release assay, cytotoxic CTL response vs peptide loaded autologous APC; type: cell-based, human; conditions: 50:1 E:T
WT1- leukemia = assay: Cr51 release assay, cytotoxic CTL response vs WT1- leukemia; type: cell-based, human; conditions: 50:1 E:T
WT1+ leukemia = assay: Cr51 release assay, cytotoxic CTL response vs WT1+ leukemia expressing restricting HLA allele; type: cell-based, human; conditions: 50:1 E:T
[2] = test system: WT1- allo APC with restricting HLA allele; assay: Cr51 release assay, cytotoxic CTL response vs unloaded allogeneic APC sharing restricting HLA allele; type: cell-based, human; conditions: 50:1 E:T
PHA blasts = assay: Cr51 release assay, cytotoxic CTL response vs PHA blasts from the same leukemic patient; type: cell-based, human; conditions: 50:1 E:T, PHA blasts from same patients as the leukemia
[3] = test system: WT1+ allo APC with restricting HLA allele loaded with WT1 peptide; assay: Cr51 release assay, cytotoxic CTL response vs peptide loaded allogeneic APC sharing restricting HLA allele (HLA restriction); conditions: 50:1 E:T

Structure (SMILES)	Cytotoxic CTL response, % vs WT1- autologous APC (WT1- autologous APC; HLA allele A0201)	Cytotoxic CTL response, % vs WT1 peptide loaded autologous APC ([1]; HLA allele A0201)	Cytotoxic CTL response, % vs WT1- leukemia (WT1- leukemia; HLA allele A0201)	Cytotoxic CTL response, % vs WT1+ Leukemia (WT1+ leukemia; HLA allele A0201)	Cytotoxic CTL response, % vs WT1+ leukemia (WT1+ leukemia; HLA allele A0201)	Cytotoxic CTL response, % vs WT1- allo APC with restricting HLA allele ([2]; HLA allele A0201)	Cytotoxic CTL response, % vs PHA blasts (PHA blasts; HLA allele A0201)	Cytotoxic CTL response, % vs WT1+ allo APC with restricting HLA allele loaded with WT1 peptide ([3]; HLA allele A0201)	further results
CC(C)C[C@H](NC(=O)[C@H](C)NC(=O)CN)C(=O)N[C@@H](CCCNC(=N)N)C(=O)N[C@@H](CC(N)=O)C(=O)N1CCC[C@H]1C(=O)N[C@H](C(=O)N[C@@H](C)C(=O)N[C@@H](CS)C(=O)O)[C@@H](C)O [SEQ ID NO: 143] (H-GALRNPTAC-OH; N-terminus and C-terminus assumed)	–	–	–	–	–	–	–	–	Cytotoxic CTL response, % vs WT1- autologous APC (WT1- autologous APC; HLA allele B0702): 0%; Cytotoxic CTL response, % vs WT1 peptide loaded autologous APC ([1]; HLA allele B0702): 30%; Cytotoxic CTL response, % vs WT1- leukemia (WT1- leukemia; HLA allele B0702): 1%; Cytotoxic CTL response, % vs WT1+ Leukemia (WT1+ leukemia; HLA allele B0702): 60%; Cytotoxic CTL response, % vs WT1+ leukemia (WT1+ leukemia; HLA allele B0702): 60%; Cytotoxic CTL response, % vs WT1- allo APC with restricting HLA allele ([2]; HLA allele B0702): 5%; Cytotoxic CTL response, % vs PHA blasts (PHA blasts; HLA allele B0702): 1%; Cytotoxic CTL response, % vs WT1+ allo APC with restricting HLA allele loaded with WT1 peptide ([3]; HLA allele B0702): 22%
CC(C)C[C@H](NC(=O)[C@H](CO)NC(=O)[C@@H]1CCCN1C(=O)[C@@H]1CCCN1C(=O)[C@H](Cc1ccccc1)NC(=O)[C@H](Cc1c[nH]cn1)NC(=O)[C@@H]1CCCN1C(=O)[C@H](CC(C)C)NC(=O)[C@@H]1CCCN1)C(=O)O [SEQ ID NO: 144] (H-PLPHFPPSL-OH; N-terminus and C-terminus assumed)	0%	30%	2%	22%	22%	1%	1%	24%	–
C[C@@H](O)[C@H](N)C(=O)N[C@@H](Cc1c[nH]cn1)C(=O)N[C@@H](CO)C(=O)N1CCC[C@H]1C(=O)N[C@H](C(=O)N[C@@H](Cc1c[nH]cn1)C(=O)N1CCC[C@H]1C(=O)N1CCC[C@H]1C(=O)N[C@@H](CCCNC(=N)N)C(=O)O)[C@@H](C)O [SEQ ID NO: 146] (H-THSPTHPPR-OH; N-terminus and C-terminus assumed)	2%	50%	0%	38%	38%	1%	3%	21%	Cytotoxic CTL response, % vs WT1- autologous APC (WT1- autologous APC; HLA allele B4001): 0%; Cytotoxic CTL response, % vs WT1 peptide loaded autologous APC ([1]; HLA allele B4001): 45%; Cytotoxic CTL response, % vs WT1- leukemia (WT1- leukemia; HLA allele B4001): 3%; Cytotoxic CTL response, % vs WT1+ Leukemia (WT1+ leukemia; HLA allele B4001): 65%; Cytotoxic CTL response, % vs WT1+ leukemia (WT1+ leukemia; HLA allele B4001): 65%; Cytotoxic CTL response, % vs WT1- allo APC with restricting HLA allele ([2]; HLA allele B4001): 0%; Cytotoxic CTL response, % vs PHA blasts (PHA blasts; HLA allele B4001): 5%; Cytotoxic CTL response, % vs WT1+ allo APC with restricting HLA allele loaded with WT1 peptide ([3]; HLA allele B4001): 31%
CC(C)C[C@H](NC(=O)[C@@H](N)CCCCN)C(=O)NCC(=O)N[C@@H](C)C(=O)N[C@@H](C)C(=O)N[C@@H](CCC(=O)O)C(=O)N[C@@H](C)C(=O)N[C@@H](CO)C(=O)N[C@@H](C)C(=O)O [SEQ ID NO: 150] (H-KLGAAEASA-OH; N-terminus and C-terminus assumed)	3%	41%	10%	37%	37%	2%	8%	22%	–
CSCC[C@H](NC(=O)[C@H](CCC(N)=O)NC(=O)[C@H](CCC(N)=O)NC(=O)[C@@H]1CCCN1C(=O)[C@H](CCC(=O)O)NC(=O)[C@H](CO)NC(=O)CNC(=O)[C@H](CO)NC(=O)[C@H](C)N)C(=O)O [SEQ ID NO: 151] (H-ASGSEPQQM-OH; N-terminus and C-terminus assumed)	–	–	–	–	–	–	–	–	Cytotoxic CTL response, % vs WT1- autologous APC (WT1- autologous APC; HLA allele B3501): 5%; Cytotoxic CTL response, % vs WT1 peptide loaded autologous APC ([1]; HLA allele B3501): 73%; Cytotoxic CTL response, % vs WT1- leukemia (WT1- leukemia; HLA allele B3501): 5%; Cytotoxic CTL response, % vs WT1+ Leukemia (WT1+ leukemia; HLA allele B3501): 39%; Cytotoxic CTL response, % vs WT1+ leukemia (WT1+ leukemia; HLA allele B3501): 39%; Cytotoxic CTL response, % vs WT1- allo APC with restricting HLA allele ([2]; HLA allele B3501): 3%; Cytotoxic CTL response, % vs PHA blasts (PHA blasts; HLA allele B3501): 9%; Cytotoxic CTL response, % vs WT1+ allo APC with restricting HLA allele loaded with WT1 peptide ([3]; HLA allele B3501): 51%
CC(C)C[C@H](NC(=O)[C@H](C)NC(=O)[C@H](CS)NC(=O)CNC(=O)CN)C(=O)N1CCC[C@H]1C(=O)N[C@H](C(=O)N[C@@H](CO)C(=O)NCC(=O)N[C@@H](C)C(=O)O)C(C)C [SEQ ID NO: 153] (H-GGCALPVSGA-OH; N-terminus and C-terminus assumed)	8%	32%	3%	47%	47%	3%	6%	25%	–
CC(C)C[C@H](NC(=O)[C@H](CO)NC(=O)CNC(=O)[C@H](Cc1ccc(O)cc1)NC(=O)[C@H](C)NC(=O)[C@@H](N)CO)C(=O)NCC(=O)NCC(=O)N1CCC[C@H]1C(=O)O [SEQ ID NO: 157] (H-SAYGSLGGP-OH; N-terminus and C-terminus assumed)	2%	51%	0%	–	0%	5%	–	31%	Cytotoxic CTL response, % vs WT1- autologous APC (WT1- autologous APC; HLA allele B4001): 2%; Cytotoxic CTL response, % vs WT1 peptide loaded autologous APC ([1]; HLA allele B4001): 41%; Cytotoxic CTL response, % vs WT1- leukemia (WT1- leukemia; HLA allele B4001): 3%; Cytotoxic CTL response, % vs WT1+ Leukemia (WT1+ leukemia; HLA allele B4001): 68%; Cytotoxic CTL response, % vs WT1+ leukemia (WT1+ leukemia; HLA allele B4001): 68%; Cytotoxic CTL response, % vs WT1- allo APC with restricting HLA allele ([2]; HLA allele B4001): 8%; Cytotoxic CTL response, % vs PHA blasts (PHA blasts; HLA allele B4001): 3%; Cytotoxic CTL response, % vs WT1+ allo APC with restricting HLA allele loaded with WT1 peptide ([3]; HLA allele B4001): 24%
